Patent US20260256925A1, “INDAZOLE DERIVATIVES AS ESTROGEN RECEPTOR DEGRADERS” (REGENTS OF THE UNIVERSITY OF MICHIGAN, priority 2022, published 2026)
pIC50: −log10 of the molar value.

What was measured:
Assay type in all cases: cell-based
ER [1] = target: T1, ER (Homo sapiens, UniProt P03372); assay: Western blot analysis (compounds B1-B126); settings: ER degradation, read-out: Traditional Western Degradation potency (DC50)
T1 construct: endogenous in cells; probably T47D or MCF-7
T1 sequence (P03372 1-595): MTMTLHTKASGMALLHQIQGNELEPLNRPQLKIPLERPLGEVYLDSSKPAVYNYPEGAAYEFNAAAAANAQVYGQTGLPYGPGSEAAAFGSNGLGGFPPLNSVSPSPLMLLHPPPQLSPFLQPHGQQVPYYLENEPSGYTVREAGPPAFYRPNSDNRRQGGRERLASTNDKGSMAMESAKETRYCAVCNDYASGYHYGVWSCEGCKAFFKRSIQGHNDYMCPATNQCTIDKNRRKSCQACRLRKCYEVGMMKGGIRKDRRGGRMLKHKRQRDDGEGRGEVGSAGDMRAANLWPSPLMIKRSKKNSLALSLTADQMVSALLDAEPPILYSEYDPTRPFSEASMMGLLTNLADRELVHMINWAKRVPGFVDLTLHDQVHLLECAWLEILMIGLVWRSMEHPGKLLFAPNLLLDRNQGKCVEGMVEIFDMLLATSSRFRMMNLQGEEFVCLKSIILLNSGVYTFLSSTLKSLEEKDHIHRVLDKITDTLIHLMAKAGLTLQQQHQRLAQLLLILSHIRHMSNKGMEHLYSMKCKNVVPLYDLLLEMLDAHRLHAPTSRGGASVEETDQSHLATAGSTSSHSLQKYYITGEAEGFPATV
Description: Western Blot Analysis. The cells that are treated with the compounds are lysed in Radioimmunoprecipitation Assay Protein Lysis and Extraction Buffer (e.g., 25 mmol/L Tris.HCl, pH 7.6, 150 mmol/L NaCl, 1% Nonidet P-40, 1% sodium deoxycholate, and 0.1% sodium dodecyl sulfate) containing proteinase inhibitor cocktail. Equal amounts of total protein are electrophoresed through 10% SDS-polyacrylamide gels after determination of protein concentration by BCA assay. The separated protein bands are transferred onto PVDF membranes and blotted against different antibodies. The blots are scanned, and the band intensities are quantified (e.g., by using GelQuant.NET software provided by biochemlabsolutions.com). The relative mean intensity of target proteins is expressed after normalization to the intensity of glyceraldehyde-3-phosphate dehydrogenase bands.
Western Blot Analysis. Western blot analysis was performed essentially as described previously. The cells treated with indicated compounds were lysed in Radioimmunoprecipitation Assay Protein Lysis and Extraction Buffer (25 mmol/L Tris.HCl, pH 7.6, 150 mmol/L NaCl, 1% Nonidet P-40, 1% sodium deoxycholate, and 0.1% sodium dodecyl sulfate) containing proteinase inhibitor cocktail (Roche Diagnostics, Mannheim, Germany). Equal amounts of total protein were electrophoresed through 10% SDS-polyacrylamide gels after determination of protein concentration by BCA assay (Fisher Scientific, Pittsburgh, PA). The separated protein bands were transferred onto PVDF membranes (GE Healthcare Life Sciences, Marlborough, MA) and blotted against different antibodies, as indicated. The blots were scanned, and the band intensities were quantified using GelQuant.NET software provided by biochemlabsolutions.com. The relative mean intensity of target proteins was expressed after normalization to the intensity of glyceraldehyde-3-phosphate dehydrogenase bands.

ER [2] = target: T1, ER; assay: In-cell Western (ICW) ER degradation assay in T47D cells; settings: T47D cells, 16 hrs
Description: (§1) ERa degradative activity of compounds can be assessed in MCF-7 and T47D Cells. MCF-7 and T47D cell are seeded and are subsequently treated with the compounds at certain concentrations (e.g., 0.02 to 300 nM). DMSO can be used as vehicle control. Cells are fixed and are blocked with Intercept (PBS) Blocking Buffer (e.g., Li—COR, Odyssey Blocking Buffer), and are stained with ER (e.g., 1:500, Cell signaling) primary antibody for overnight at cold room. Secondary Antibody (e.g., IRDye 800CW Goat anti-Rabbit IgG) and CellTag 700 Stain are added in Intercept (PBS) Blocking Buffer. Finally, cell plate is placed in incubator to dry. Image and signal are captured on Odyssey® DLx Imaging System.
(§2) In-cell Western (ICW) assays in MCF-7 and T47D cell lines.
(§3) Procedures for ICW assays
(§4) In vitro Assay: MCF-7 and T47D ICW assay
(§5) Day 3: After 16 hrs of compounds treatment, cells were fixed by 4% PFA and permeabilized with elution buffer (0.1% Triton X-100 in 1% PBS Solution). Subsequently, cells were blocked with Intercept (PBS) Blocking Buffer (Li—COR, Odyssey Blocking Buffer), and were stained with ER (1:500, Cell signaling) primary antibody for overnight at cold room.
(§6) Day 4: Remove the buffer, add IRDye 800CW Goat anti-Rabbit IgG Secondary Antibody (1:2000) and CellTag 700 Stain (1:500) in Intercept (PBS) Blocking Buffer. Finally, cell plate is placed in incubator to dry. Image and signal were captured on Odyssey® DLx Imaging System.

ER [3] = target: T1, ER; assay: In-cell Western (ICW) ER degradation assay in MCF-7 cells; settings: 16 hrs
Description: as §1, §2, §3, §4, §5, §6

[4] = Cell growth assay, WST-8 (compounds B1-B126); settings: 96 h; T47D cell line, WST-8, 4 days; read-out: Cell growth inhibition in T47D cell line IC50
In short: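 Cells seeded at 1500/well overnight, treated one day later with compound doses for 4 days, then 10% WST-8 added for 2.5 h at 37° C in CO2. Absorbance at 450 nm, expressed relative to vehicle control over three independent repeats.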

ER [5] = target: T1, ER; assay: In-cell western blot analysis, relative ER percentage (compounds B1-B126); settings: ER degradation, 16 hours, read-out: ICW DC50
In short: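 Cells seeded at 40,000 or 10,000 per well overnight were treated with compound (final 0.5% DMSO) for 16 hours, then fixed with formaldehyde. ER was detected with primary antibodies and anti-rabbit-680/anti-mouse-800 secondaries on a CLX reader. Signal is expressed relative to untreated and DMSO wells set as 100%.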

DC50 (ER [1]) [nM]	DC50 (ER [5]) [nM]	SMILES	pIC50 [4]	other results
< 10		C[C@@H]1Cc2c(ccc3[nH]ncc23)[C@@H](c2c(F)cc(N3CCC(C(=O)N4CCC(N5Cc6cc7c(cc6C5)C(=O)N(C5CCC(=O)NC5=O)C7=O)CC4)CC3)cc2F)N1CC(F)F (stereo partly drawn) [Compound B6, 6-(1-(1-(4-((6S,8R)-7-(2,2-difluoroethyl)-8-methyl-6,7,8,9-tetrahydro-3H-pyrazolo[4,3-f]isoquinolin-6-yl)-3,5-difluorophenyl)piperidine-4-carbonyl)piperidin-4-yl)-2-(2,6-dioxopiperidin-3-yl)-6,7-dihydropyrrolo[3,4-f]isoindole-1,3(2H,5H)-dione]		
10 to 100		C[C@@H]1Cc2c(ccc3[nH]ncc23)[C@@H](c2c(F)cc(N3CCC4(CCN(C(=O)CN5Cc6cc7c(cc6C5)C(=O)N(C5CCC(=O)NC5=O)C7=O)CC4)C3)cc2F)N1CC(F)F (stereo partly drawn) [Compound B12, 6-(2-(2-(4-((6S,8R)-7-(2,2-difluoroethyl)-8-methyl-6,7,8,9-tetrahydro-3H-pyrazolo[4,3-f]isoquinolin-6-yl)-3,5-difluorophenyl)-2,8-diazaspiro[4.5]decan-8-yl)-2-oxoethyl)-2-(2,6-dioxopiperidin-3-yl)-6,7-dihydropyrrolo[3,4-f]isoindole-1,3(2H,5H)-dione]		
< 10		C[C@@H]1Cc2c(ccc3[nH]ncc23)[C@@H](c2c(F)cc(N3CC4(CCN(C(=O)CN5Cc6cc7c(cc6C5)C(=O)N(C5CCC(=O)NC5=O)C7=O)CC4)C3)cc2F)N1CC(F)F (stereo partly drawn) [Compound B13, 6-(2-(2-(4-((6S,8R)-7-(2,2-difluoroethyl)-8-methyl-6,7,8,9-tetrahydro-3H-pyrazolo[4,3-f]isoquinolin-6-yl)-3,5-difluorophenyl)-2,7-diazaspiro[3.5]nonan-7-yl)-2-oxoethyl)-2-(2,6-dioxopiperidin-3-yl)-6,7-dihydropyrrolo[3,4-f]isoindole-1,3(2H,5H)-dione]		
> 100		C[C@@H]1Cc2c(ccc3[nH]ncc23)[C@@H](c2c(F)cc(N3CCC(CN4CC5(Cc6cc7c(cc6C5)C(=O)N(C5CCC(=O)NC5=O)C7=O)C4)CC3)cc2F)N1CC(F)F (stereo partly drawn) [Compound B14, 1-((1-(4-((6S,8R)-7-(2,2-difluoroethyl)-8-methyl-6,7,8,9-tetrahydro-3H-pyrazolo[4,3-f]isoquinolin-6-yl)-3,5-difluorophenyl)piperidin-4-yl)methyl)-2′-(2,6-dioxopiperidin-3-yl)-5′,7′-dihydro-1′H-spiro[azetidine-3,6′-cyclopenta[f]isoindole]-1′,3′(2′H)-dione]		

Second part, the compound before the results:

SMILES	DC50 (ER [1]) [nM]	DC50 (ER [5]) [nM]	pIC50 [4]	other results
C[C@@H]1Cc2c(ccc3[nH]ncc23)[C@@H](c2c(F)cc(N3CCC(CN4CCN5c6cc7c(cc6N(C)C[C@@H]5C4)C(=O)N(C4CCC(=O)NC4=O)C7)CC3)cc2F)N1CC(F)F (stereo partly drawn) [Compound B18, 3-((S)-3-((1-(4-((6S,8R)-7-(2,2-difluoroethyl)-8-methyl-6,7,8,9-tetrahydro-3H-pyrazolo[4,3-f]isoquinolin-6-yl)-3,5-difluorophenyl)piperidin-4-yl)methyl)-6-methyl-8-oxo-2,3,4,4a,5,6,8,10-octahydropyrazino[1,2-a]pyrrolo[3,4-g]quinoxalin-9(1H)-yl)piperidine-2,6-dione]	10 to 100			
C[C@@H]1Cc2c(ccc3[nH]ncc23)[C@@H](c2ccc(N3CCC4(CC3)CC(CN3CCN5c6cc7c(cc6OC[C@@H]5C3)C(=O)N([C@@H]3CCC(=O)NC3=O)C7)C4)cn2)N1CC1(F)CC1 [Compound A12, (R)-3-((S)-3-((7-(6-((6S,8R)-7-((1-fluorocyclopropyl)methyl)-8-methyl-6,7,8,9-tetrahydro-3H-pyrazolo[4,3-f]isoquinolin-6-yl)pyridin-3-yl)-7-azaspiro[3.5]nonan-2-yl)methyl)-8-oxo-1,2,3,4,4a,5,8,10-octahydro-9H-pyrazino[1′,2′: 4,5][1,4]oxazino[2,3-f]isoindol-9-yl)piperidine-2,6-dione]				DC50 (ER [2]): < 1 nM; Dmax (ER [2]; T47D, read-out: ER T47D ICW Dmax (%)): > 75%; Dmax (ER [3]; MCF7, MCF-7 cells, read-out: ER MCF7 ICW Dmax (%)): > 75%; DC50 (ER [3]; MCF-7 cells, read-out: ER MCF7 ICW DC50): < 1 nM
C[C@@H]1Cc2c(ccc3[nH]ncc23)[C@@H](c2ccc(N3CCC4(CC3)CC(CN3CCN5c6ccc7c(c6OC[C@H]5C3)CN(C3CCC(=O)NC3=O)C7=O)C4)cn2)N1CC(F)(F)F (stereo partly drawn) [Compound B106, 3-((R)-7-((7-(6-((6S,8R)-8-methyl-7-(2,2,2-trifluoroethyl)-6,7,8,9-tetrahydro-3H-pyrazolo[4,3-f]isoquinolin-6-yl)pyridin-3-yl)-7-azaspiro[3.5]nonan-2-yl)mcthyl)-1-oxo-1,3,5,5a,6,7,8,9-octahydro-2H-pyrazino[1′,2′:4,5][1,4]oxazino[2,3-e]isoindol-2-yl)piperidine-2,6-dione]		< 10	> 9.00	
C[C@@H]1Cc2c(ccc3[nH]ncc23)[C@@H](c2c(F)cc(N3CC4(CN(CC(=O)N5CCN6c7cc8c(cc7OC[C@@H]6C5)C(=O)N(C5CCC(=O)NC5=O)C8)C4)C3)cc2F)N1CC(F)F (stereo partly drawn) [Compound B38, 3-((S)-3-(2-(6-(4-((6S,8R)-7-(2,2-difluorocthyl)-8-mcthyl-6,7,8,9-tetrahydro-3H-pyrazolo[4,3-f]isoquinolin-6-yl)-3,5-difluorophenyl)-2,6-diazaspiro[3.3]heptan-2-yl)acetyl)-8-oxo-1,2,3,4,4a,5,8,10-octahydro-9H-pyrazino[1′,2′:4,5][1,4]oxazino[2,3-f]isoindol-9-yl)piperidine-2,6-dione]		< 10	> 9.00	
C[C@@H]1Cc2c(ccc3[nH]ncc23)[C@@H](c2c(F)cc(N3CCC4(CC3)CN(C(=O)CN3CCN5c6cc7c(cc6OC[C@@H]5C3)C(=O)N(C3CCC(=O)NC3=O)C7)C4)cc2F)N1CC(F)F (stereo partly drawn) [Compound B20, 3-((S)-3-(2-(7-(4-((6S,8R)-7-(2,2-difluoroethyl)-8-methyl-6,7,8,9-tetrahydro-3H-pyrazolo[4,3-f]isoquinolin-6-yl)-3,5-difluorophenyl)-2,7-diazaspiro[3.5]nonan-2-yl)-2-oxoethyl)-8-oxo-1,2,3,4,4a,5,8,10-octahydro-9H-pyrazino[1′,2′: 4,5][1,4]oxazino[2,3-f]isoindol-9-yl)piperidine-2,6-dione]		< 10	> 9.00	
